This assay addresses Cdk9/cyclinT1 (Homo sapiens, UniProt P50750). The assay can be described thus: Cdk9/cyclinT1 kinase assay (IMAP or Alpha Screen protocol).

Structures are written as SMILES. pIC50: −log10 of the molar value.

The term pIC50 denotes the negative decadic logarithm of the IC50, by convention in mol/L. Low values mean a large IC50, high ones a small IC50.

Cdk9/cyclinT1, sequence (P50750 whole entry): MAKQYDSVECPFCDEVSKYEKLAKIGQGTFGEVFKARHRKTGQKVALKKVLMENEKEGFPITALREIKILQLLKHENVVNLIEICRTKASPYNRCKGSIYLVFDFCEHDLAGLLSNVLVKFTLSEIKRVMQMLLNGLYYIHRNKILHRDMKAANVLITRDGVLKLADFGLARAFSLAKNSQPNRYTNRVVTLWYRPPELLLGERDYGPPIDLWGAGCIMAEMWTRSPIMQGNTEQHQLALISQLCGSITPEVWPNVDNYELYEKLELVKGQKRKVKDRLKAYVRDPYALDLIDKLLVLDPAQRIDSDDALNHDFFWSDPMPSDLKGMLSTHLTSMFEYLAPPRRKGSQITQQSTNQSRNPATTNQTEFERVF
Cdk9/cyclinT1, sequence (O60563 whole entry partner): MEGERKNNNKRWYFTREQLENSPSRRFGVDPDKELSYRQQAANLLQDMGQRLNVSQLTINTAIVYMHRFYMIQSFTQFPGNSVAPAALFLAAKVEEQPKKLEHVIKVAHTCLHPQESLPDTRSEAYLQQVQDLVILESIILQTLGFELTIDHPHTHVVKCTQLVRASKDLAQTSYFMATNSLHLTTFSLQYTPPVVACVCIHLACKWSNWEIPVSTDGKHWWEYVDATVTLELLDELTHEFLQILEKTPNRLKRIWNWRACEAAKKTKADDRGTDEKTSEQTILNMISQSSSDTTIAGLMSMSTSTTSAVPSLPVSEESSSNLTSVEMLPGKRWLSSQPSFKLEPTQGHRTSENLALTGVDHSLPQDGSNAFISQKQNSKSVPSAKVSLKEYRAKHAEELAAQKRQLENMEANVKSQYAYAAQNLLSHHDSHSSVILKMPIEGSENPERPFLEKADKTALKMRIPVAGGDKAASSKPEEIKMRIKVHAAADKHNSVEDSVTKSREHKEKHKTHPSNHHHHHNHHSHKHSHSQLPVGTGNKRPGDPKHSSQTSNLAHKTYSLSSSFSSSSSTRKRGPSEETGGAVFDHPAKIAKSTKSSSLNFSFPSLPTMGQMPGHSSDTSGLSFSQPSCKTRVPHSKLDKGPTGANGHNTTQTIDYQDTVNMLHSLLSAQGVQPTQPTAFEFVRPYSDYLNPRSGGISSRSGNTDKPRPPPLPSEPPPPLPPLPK
Description: Cdk9/cyclinT1 IMAP Protocol
Fluorescence polarization (FP) is used for detection.
Cdk9/cyclinT1 Alpha Screen Protocol

For the molecule `O=C(Nc1cc(-c2cncc(NCC3CCCCO3)n2)c(Cl)cn1)[C@@H]1CCCNC1` (stereo partly drawn) [Example 34, (R)-Piperidine-3-carboxylic acid (5-chloro-4-{6-[(tetrahydro-pyran-2-ylmethyl)-amino]-pyrazin-2-yl}-pyridin-2-yl)-amide], the pIC50 was 7.96.

In the case of `COCCNc1cncc(-c2cc(NC(=O)[C@@H]3CCCNC3)ncc2Cl)n1` [Example 35, (R)-Piperidine-3-carboxylic acid {5-chloro-4-[6-(2-methoxy-ethylamino)-pyrazin-2-yl]-pyridin-2-yl}-amide], the pIC50 is 7.33.

`C[C@H](Nc1cncc(-c2cc(NC(=O)[C@@H]3CCCNC3)ncc2Cl)n1)C1CCCCC1` [Example 36, (R)-Piperidine-3-carboxylic acid {5-chloro-4-[6-((S)-1-cyclohexyl-ethylamino)-pyrazin-2-yl]-pyridin-2-yl}-amide] gave a pIC50 of more than 8.10.

`C[C@@H](Nc1cncc(-c2cc(NC(=O)[C@@H]3CCCNC3)ncc2Cl)n1)C1CCCCC1` [Example 37, (R)-Piperidine-3-carboxylic acid {5-chloro-4-[6-((R)-1-cyclohexyl-ethylamino)-pyrazin-2-yl]-pyridin-2-yl}-amide] had a pIC50 of more than 8.10.

Take `O=C(Nc1cc(-c2cncc(Cl)n2)c(Cl)cn1)[C@@H]1CCCNC1` [Example 38, (R)-Piperidine-3-carboxylic acid [5-chloro-4-(6-chloro-pyrazin-2-yl)-pyridin-2-yl]-amide]: the pIC50 is 5.85.

In turn, `O=C(Nc1cc(-c2cncc(NCC3CC3)n2)c(Cl)cn1)[C@@H]1CCCNC1` [Example 39, (R)-Piperidine-3-carboxylic acid {5-chloro-4-[6-(cyclopropylmethyl-amino)-pyrazin-2-yl]-pyridin-2-yl}-amide] gave a pIC50 of 7.77. This pIC50 is 1.92 log units higher than that of the molecule before.

The molecule `O=C(Nc1cc(-c2cncc(NCC3CCOCC3)n2)c(Cl)cn1)[C@@H]1CCCN1` [Example 40, (S)-Pyrrolidine-2-carboxylic acid (5-chloro-4-{6-[(tetrahydro-pyran-4-ylmethyl)-amino]-pyrazin-2-yl}-pyridin-2-yl)-amide] had a pIC50 of 7.43. This pIC50 lies 0.34 log units lower than the previous one.

`O=C(Nc1cc(-c2cncc(NCC3CCOCC3)n2)c(Cl)cn1)[C@@H]1CCNC1` [Example 41, (R)-Pyrrolidine-3-carboxylic acid (5-chloro-4-{6-[(tetrahydro-pyran-4-ylmethyl)-amino]-pyrazin-2-yl}-pyridin-2-yl)-amide]: the pIC50 is more than 8.10.

In turn, `N[C@@H]1CC[C@H](C(=O)Nc2cc(-c3cncc(NCC4CCOCC4)n3)c(Cl)cn2)C1` [Example 42, (1S,3R)-3-Amino-cyclopentanecarboxylic acid (5-chloro-4-{6-[(tetrahydro-pyran-4-ylmethyl)-amino]-pyrazin-2-yl}-pyridin-2-yl)-amide] showed a pIC50 of 7.60.

`N[C@H]1CC[C@@H](C(=O)Nc2cc(-c3cncc(NCC4CCOCC4)n3)c(Cl)cn2)C1` [Example 43, (1R,3S)-3-Amino-cyclopentanecarboxylic acid (5-chloro-4-{6-[(tetrahydro-pyran-4-ylmethyl)-amino]-pyrazin-2-yl}-pyridin-2-yl)-amide]: the pIC50 was more than 8.10.

In turn, `N[C@@H]1CC[C@@H](C(=O)Nc2cc(-c3cncc(NCC4CCOCC4)n3)c(Cl)cn2)C1` [Example 44, (1R,3R)-3-Amino-cyclopentanecarboxylic acid (5-chloro-4-{6-[(tetrahydro-pyran-4-ylmethyl)-amino]-pyrazin-2-yl}-pyridin-2-yl)-amide] showed a pIC50 of more than 8.10.

As for `CCS(=O)(=O)N1CCC[C@H](C(=O)Nc2cc(-c3cncc(NCC4CCOCC4)n3)c(Cl)cn2)C1` [Example 45, (S)-1-Ethanesulfonyl-piperidine-3-carboxylic acid (5-chloro-4-{6-[(tetrahydro-pyran-4-ylmethyl)-amino]-pyrazin-2-yl}-pyridin-2-yl)-amide], the negative logarithm of the IC50 (pIC50) was more than 8.10.

The molecule `CC(C)OC(=O)N1CCC[C@H](C(=O)Nc2cc(-c3cncc(NCC4CCOCC4)n3)c(Cl)cn2)C1` [Example 46, (S)-3-(5-Chloro-4-{6-[(tetrahydro-pyran-4-ylmethyl)-amino]-pyrazin-2-yl}-pyridin-2-ylcarbamoyl)-piperidine-1-carboxylic acid isopropyl ester] had a pIC50 of more than 8.10.

For `COCC(=O)N1CCC[C@H](C(=O)Nc2cc(-c3cncc(NCC4CCOCC4)n3)c(Cl)cn2)C1` [Example 47, (S)-1-(2-Methoxy-acetyl)-piperidine-3-carboxylic acid (5-chloro-4-{6-[(tetrahydro-pyran-4-ylmethyl)-amino]-pyrazin-2-yl}-pyridin-2-yl)-amide], the negative logarithm of the IC50 (pIC50) was more than 8.10.

As for `CC(=O)N1CCC[C@H](C(=O)Nc2cc(-c3cncc(NCC4CCOCC4)n3)c(Cl)cn2)C1` [Example 48, (S)-1-Acetyl-piperidine-3-carboxylic acid (5-chloro-4-{6-[(tetrahydro-pyran-4-ylmethyl)-amino]-pyrazin-2-yl}-pyridin-2-yl)-amide], the negative-log IC50 (pIC50) was more than 8.10.

For the molecule `COC(=O)N1CCC[C@H](C(=O)Nc2cc(-c3cncc(NCC4CCOCC4)n3)c(Cl)cn2)C1` [Example 49, (S)-3-(5-Chloro-4-{6-[(tetrahydro-pyran-4-ylmethyl)-amino]-pyrazin-2-yl}-pyridin-2-ylcarbamoyl)-piperidine-1-carboxylic acid methyl ester], the negative logarithm of the IC50 (pIC50) is more than 8.10.

`CS(=O)(=O)N[C@@H]1CC[C@H](C(=O)Nc2cc(-c3cncc(NCC4CCOCC4)n3)c(Cl)cn2)C1` [Example 50, (1S,3R)-3-Methanesulfonylamino-cyclopentanecarboxylic acid (5-chloro-4-{6-[(tetrahydro-pyran-4-ylmethyl)-amino]-pyrazin-2-yl}-pyridin-2-yl)-amide] showed a pIC50 of more than 8.10.

The molecule `CS(=O)(=O)N[C@H]1CC[C@@H](C(=O)Nc2cc(-c3cncc(NCC4CCOCC4)n3)c(Cl)cn2)C1` [Example 51, (1R,3S)-3-Methanesulfonylamino-cyclopentanecarboxylic acid (5-chloro-4-{6-[(tetrahydro-pyran-4-ylmethyl)-amino]-pyrazin-2-yl}-pyridin-2-yl)-amide] had a negative logarithm of the IC50 (pIC50) of more than 8.10.

In turn, `CS(=O)(=O)N[C@@H]1CC[C@@H](C(=O)Nc2cc(-c3cncc(NCC4CCOCC4)n3)c(Cl)cn2)C1` [Example 52, (1R,3R)-3-Methanesulfonylamino-cyclopentanecarboxylic acid (5-chloro-4-{6-[(tetrahydro-pyran-4-ylmethyl)-amino]-pyrazin-2-yl}-pyridin-2-yl)-amide] had a pIC50 of more than 8.10.

On to `COC(=O)N[C@@H]1CC[C@H](C(=O)Nc2cc(-c3cncc(NCC4CCOCC4)n3)c(Cl)cn2)C1` [Example 53, [(1R,3S)-3-(5-Chloro-4-{6-[(tetrahydro-pyran-4-ylmethyl)-amino]-pyrazin-2-yl}-pyridin-2-ylcarbamoyl)-cyclopentyl]-carbamic acid methyl ester], for which the pIC50 was more than 8.10.

`COC(=O)N[C@H]1CC[C@@H](C(=O)Nc2cc(-c3cncc(NCC4CCOCC4)n3)c(Cl)cn2)C1` [Example 54, [(1S,3R)-3-(5-Chloro-4-{6-[(tetrahydro-pyran-4-ylmethyl)-amino]-pyrazin-2-yl}-pyridin-2-ylcarbamoyl)-cyclopentyl]-carbamic acid methyl ester] showed a negative logarithm of the IC50 (pIC50) of more than 8.10.

The molecule `COC(=O)N[C@@H]1CC[C@@H](C(=O)Nc2cc(-c3cncc(NCC4CCOCC4)n3)c(Cl)cn2)C1` [Example 55, [(1R,3R)-3-(5-Chloro-4-{6-[(tetrahydro-pyran-4-ylmethyl)-amino]-pyrazin-2-yl}-pyridin-2-ylcarbamoyl)-cyclopentyl]-carbamic acid methyl ester] gave a negative logarithm of the IC50 (pIC50) of more than 8.10.

Turning to `CC(C)S(=O)(=O)N1CCC[C@H](C(=O)Nc2cc(-c3cncc(NCC4CCOCC4)n3)c(Cl)cn2)C1` [Example 56, (S)-1-(Propane-2-sulfonyl)-piperidine-3-carboxylic acid (5-chloro-4-{6-[(tetrahydro-pyran-4-ylmethyl)-amino]-pyrazin-2-yl}-pyridin-2-yl)-amide], the pIC50 was more than 8.10.

With `O=C(Cc1cccnc1)Nc1cc(-c2cncc(NCC3CCOCC3)n2)c(Cl)cn1` [Example 57, N-(5-Chloro-4-{6-[(tetrahydro-pyran-4-ylmethyl)-amino]-pyrazin-2-yl}-pyridin-2-yl)-2-pyridin-3-yl-acetamide], the pIC50 is more than 8.10.

In turn, `CC(C)C(=O)Nc1cc(-c2cncc(NCC3CCOCC3)n2)c(C(F)(F)F)cn1` [Example 58, N-(4-{6-[(Tetrahydro-pyran-4-ylmethyl)-amino]-pyrazin-2-yl}-5-trifluoromethyl-pyridin-2-yl)-isobutyramide] gave a pIC50 of 6.84.

The molecule `O=C(Nc1cc(-c2cncc(NCC3CCOCC3)n2)c(C(F)(F)F)cn1)C1CCOCC1` [Example 59, Tetrahydro-pyran-4-carboxylic acid (4-{6-[(tetrahydro-pyran-4-ylmethyl)-amino]-pyrazin-2-yl}-5-trifluoromethyl-pyridin-2-yl)-amide] had a negative-log IC50 (pIC50) of 6.00.

Molecule `Cc1cnc(NC(=O)C(C)C)cc1-c1cncc(NCC2CCOCC2)n1` [Example 60, N-(5-Methyl-4-{6-[(tetrahydro-pyran-4-ylmethyl)-amino]-pyrazin-2-yl}-pyridin-2-yl)-isobutyramide] had a pIC50 of 7.14.

Turning to `O=C(Nc1cc(-c2cncc(NCC3CCOCC3)n2)c(C(F)(F)F)cn1)[C@@H]1CCCNC1` [Example 61, (R)-Piperidine-3-carboxylic acid (4-{6-[(tetrahydro-pyran-4-ylmethyl)-amino]-pyrazin-2-yl}-5-trifluoromethyl-pyridin-2-yl)-amide], the negative-log IC50 (pIC50) was 6.89.

`N[C@H]1CC[C@@H](C(=O)Nc2cc(-c3cncc(NCC4CCOCC4)n3)c(C(F)(F)F)cn2)C1` [Example 62, (1R,3S)-3-Amino-cyclopentanecarboxylic acid (4-{6-[(tetrahydro-pyran-4-ylmethyl)-amino]-pyrazin-2-yl}-5-trifluoromethyl-pyridin-2-yl)-amide] had a negative-log IC50 (pIC50) of 7.40.

On to `O=C(Nc1cc(-c2cncc(N[C@@H]3CC34CCOCC4)n2)c(Cl)cn1)[C@@H]1CCCNC1` [Example 63, (R)-Piperidine-3-carboxylic acid (5-chloro-4-{6-[(R)-(6-oxa-spiro[2.5]oct-1-yl)amino]-pyrazin-2-yl}-pyridin-2-yl)-amide], for which the pIC50 was 7.33.

(Values after patent US20120165306A1, “PYRAZINYLPYRIDINES USEFUL FOR THE TREATMENT OF PROLIFERATIVE DISEASES” (priority 2009, published 2012).)
